Where a SMILES comes first, the peptide text is derived from it. [ ]: non-standard residue; d: D form. The star is where a group is joined. ξ: configuration not given here. Palmitoyl = CCCCCCCCCCCCCCCC(=O)*; ξF = NC(Cc1ccccc1)C(=O)O
Experiments:
sSema4D [1] = molecular target: T1, sSema4D (Mus musculus, UniProt O09126); assay: sSema4D concentration in a simple medium system (ELISA); format: biochemical; design: the free Sema4D protein after enzyme cleavage of Sema4D, that is, the sSema4D protein purchased from R&D Systems Company; purchased R&D Systems; conditions: for sSema4D concentration: sSema4D 1600 ng/mL, peptides 20 μM, antibody 2 μg/μL
T1 sequence (O09126 24-733 limits assumed): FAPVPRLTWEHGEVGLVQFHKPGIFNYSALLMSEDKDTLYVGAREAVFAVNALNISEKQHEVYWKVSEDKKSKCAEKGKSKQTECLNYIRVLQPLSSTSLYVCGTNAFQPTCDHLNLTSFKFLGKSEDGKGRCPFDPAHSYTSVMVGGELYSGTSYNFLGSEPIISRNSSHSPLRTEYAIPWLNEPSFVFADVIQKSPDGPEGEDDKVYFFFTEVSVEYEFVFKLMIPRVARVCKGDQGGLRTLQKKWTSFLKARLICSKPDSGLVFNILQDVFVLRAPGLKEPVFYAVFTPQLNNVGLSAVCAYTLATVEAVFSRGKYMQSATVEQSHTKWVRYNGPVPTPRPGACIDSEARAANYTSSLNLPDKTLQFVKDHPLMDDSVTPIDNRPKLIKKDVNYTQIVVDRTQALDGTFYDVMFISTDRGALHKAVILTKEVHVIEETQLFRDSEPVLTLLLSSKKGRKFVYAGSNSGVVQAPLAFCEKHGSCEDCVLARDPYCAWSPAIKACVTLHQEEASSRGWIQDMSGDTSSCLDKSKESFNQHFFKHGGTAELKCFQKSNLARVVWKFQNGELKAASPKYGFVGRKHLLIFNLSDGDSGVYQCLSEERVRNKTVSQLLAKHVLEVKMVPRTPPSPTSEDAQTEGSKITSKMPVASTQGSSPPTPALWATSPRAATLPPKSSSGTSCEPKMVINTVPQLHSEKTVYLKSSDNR
Experimental: The nano small peptides FH, FG, DMSO, and Sema4D neutralizing antibody (BMA-12) were added to the medium (the concentration of sSema4D in the medium was 1600 ng/mL) to ensure that the final concentration of FH and FG was 20 μM, and the final concentration of the Sema4D neutralizing antibody (BMA-12) (BMA-12, i.e., anti-Sema4D) was 2 μg/μL, an equal volume of DMSO was then added as a control, and culture plates were set still at 37° C. for 12, 24, 36, and 48 h, and the culture medium was collected, and the expression of Sema4D protein in the supernatant was detected using an ELISA kit (Shanghai Yuanmu Biotechnology Co., Ltd.).

sSema4D [2] = molecular target: T1, sSema4D; assay: sSema4D concentration in endothelial cell culture supernatant (ELISA); format: cell-based; design: the free Sema4D protein after enzyme cleavage of Sema4D, that is, the sSema4D protein purchased from R&D Systems Company; purchased R&D Systems; conditions: endothelial cells; for sSema4D concentration over the time course: 20 μM, 12, 24, 36, and 48 h; for sSema4D concentration: sSema4D 1600 ng/mL, peptide 20 μM, antibody 2 μg/μL
Experimental: Endothelial cells were uniformly seeded in 6-well cell culture plates and cultured in a 5% CO2 incubator at 37° C. for 24 h. The nano small peptides FH, FG, DMSO, and Sema4D neutralizing antibody (BMA-12) were added to the medium (the concentration of sSema4D in the medium was 1600 ng/mL) to ensure that the final concentration of FH and FG was 20 μM, and the final concentration of the sSema4D neutralizing antibody (BMA-12) was 2 μg/μL, an equal volume of DMSO was then added as a control, and the culture plates were cultured in an incubator for 12, 24, 36, and 48 h, respectively. The cell culture medium was then collected and centrifuged. The supernatant was taken and the expression of Sema4D protein in the supernatant was detected using an ELISA kit (Shanghai Yuanmu Biotechnology Co., Ltd.).

[3] = test system: primary mouse brain microvascular pericytes; assay: Pericyte migration (transwell experiment); format: cell-based; conditions: 20 μM, 36 h; for sSema4D-induced pericyte migration: sSema4D 1600 ng/mL
Experimental: The primary mouse brain microvascular pericytes were starved with 0.5% PM for 4 to 6 h. The pericytes were seeded in the upper layer of a 24-well transwell chamber (8 μm). The medium containing FH (20 μM), FG (20 μM), and Sema4D neutralizing antibody (BMA-12) (2 μg/μL) (the concentration of sSema4D in the medium is 1600 ng/mL) was added to the lower chamber, and an equal volume of DMSO was added as control. The cells were incubated in a 5% CO2 incubator at 37° C. for 36 h. 36 h later, the cells on the bottom of the chamber were fixed with 4% paraformaldehyde and stained with crystal violet, and the pericytes that penetrated to the bottom of the chamber were counted under a microscope.

OIR model mice = assay: Fundus angiogenesis in OIR model, Isolectin B4 confocal detection; format: in vivo, mouse; conditions: for percentage of abnormal blood vessels in the total retinal area (proportion of new blood vessels): 2 nmol injected into the vitreous on day 12, read on day 17
Experimental: Treatment group (OIR): After giving birth, 3-4 month old C57BL/6 mother mice were placed in an oxygen chamber with 75% oxygen together with 7 day old young mice, and the young mice and the mother mice were taken out on the 12th day of birth of the young mice. Immediately after the young mice were anesthetized, 2 nmol of FH, 2 nmol of FG, and 1 μg of Sema4D neutralizing antibody (BMA-12) (BMA-12, i.e., anti-Sema4D) were injected into the vitreous, and an equal volume of DMSO was used as a control. The young mice were then further raised in normal air for 5 days; the young mice were anesthetized on the 17th day of birth, and after cardiac perfusion with normal saline, the eyeballs were separated and then fixed, stained with Isolectin B4 overnight at 4° C., flatly spread on a glass slide, and photographed.
Control group (Normal): Young mice, grown with normoxia, were anesthetized on the 17th day of birth. After cardiac perfusion with normal saline, the eyeballs were taken out, and the retinas were peeled off and then fixed with 4% paraformaldehyde, stained with Isolectin B4 at 4° C. overnight, flatly spread on a glass slide, and photographed.
The results are shown in A in FIGS. 4A and 4B. Laser confocal was carried out to detect retinal angiogenesis, and ImageJ was carried out to calculate the ratio of retinal neovascularization clusters to the entire retinal area, that is, the proportion of new blood vessels. […] It can be seen from FIG. 4A that the treatment effect of FH is the best.

[4] = test system: mouse brain microvascular endothelial cells; assay: Endothelial cell leakage (transmembrane resistance); format: cell-based; conditions: 20 μM, 36 h; for sSema4D-induced endothelial cell leakage: sSema4D 1600 ng/mL
Experimental: A layer of fibronectin was first applied to coat the upper layer of a 24-well transwell chamber (0.4 um) and incubated at room temperature for 1 h; after coating, the mouse brain microvascular endothelial cells were seeded, and cultured for 5 days until the cells were full, and then FH (20 μM), FG (20 μM), and Sema4D neutralizing antibody (BMA-12) (2 μg/μL) were added to the medium (the concentration of sSema4D in the medium was 1600 ng/mL), respectively. An equal volume of DMSO was added as a control, and ECM was used as a blank control. After incubation for 36 h, the resistance value was measured by a cell transmembrane resistance measuring instrument.

Row | Compound | sSema4D concentration (sSema4D [1]; 24 h) | sSema4D concentration (sSema4D [1]; 36 h) | effect on sSema4D concentration compared with FG (sSema4D [1]; within the same action time) | sSema4D concentration over the time course (sSema4D [2]) | sSema4D concentration (sSema4D [2]; 24 h) | sSema4D concentration (sSema4D [2]; 36 h) | effect on sSema4D concentration compared with FG (sSema4D [2]; within the same action time) | inhibition of pericyte migration compared with Sema4D neutralizing antibody (BMA-12, 2 μg/μL) [3] | sSema4D-induced pericyte migration [3] | percentage of abnormal blood vessels in the total retinal area (proportion of new blood vessels) (OIR model mice) | treatment effect on fundus angiogenesis compared with Sema4D neutralizing antibody (BMA-12, 1 μg) (OIR model mice; 2 nmol intravitreal) | treatment effect on fundus angiogenesis, ranking among treatments (FIG. 4A) (OIR model mice; 2 nmol intravitreal) | effect on endothelial cell leakage compared with Sema4D neutralizing antibody (BMA-12, 2 μg/μL) [4] | sSema4D-induced endothelial cell leakage [4]
1 | CCCCCCCCCCCCCCCC(=O)NC(Cc1ccccc1)C(=O)N[C@@H](Cc1ccccc1)C(=O)N[C@H](C(=O)N[C@@H](CC(C)C)C(=O)N[C@@H](CCCCN)C(=O)N[C@@H](CCCCN)C(=O)N[C@@H](CCC(N)=O)C(=O)N[C@@H](CCCCN)C(=O)N[C@@H](CCCNC(=N)N)C(=O)N1CCC[C@H]1C(=O)N[C@@H](CCCNC(=N)N)C(=O)N[C@@H](Cc1c[nH]cn1)C(=O)O)C(C)C (stereo in doubt) [FH, hexadecanoyl-FFVLK-KQKRPRH] | can reduce the sSema4D concentration | can still reduce the sSema4D concentration | better than that of FG | can sustainably reduce the concentration of sSema4D | can reduce the sSema4D concentration | can still reduce the sSema4D concentration | better than that of FG | more effective | significantly inhibit | reduce the percentage of abnormal blood vessels in the total retinal area | comparable | the best | comparable | significantly inhibit
2 | CCCCCCCCCCCCCCCC(=O)NC(Cc1ccccc1)C(=O)N[C@@H](Cc1ccccc1)C(=O)N[C@H](C(=O)N[C@@H](CC(C)C)C(=O)N[C@@H](CCCCN)C(=O)N[C@@H](CCCCN)C(=O)N[C@@H](CC(N)=O)C(=O)N[C@@H](CCCCN)C(=O)N[C@@H](C)C(=O)N[C@@H](C)C(=O)N[C@@H](CCCCN)C(=O)NCC(=O)O)C(C)C (stereo partly shown) [FG] (Palmitoyl-[ξF]FVLKKNKAAKG-OH) | can reduce the sSema4D concentration | can still reduce the sSema4D concentration | – | can sustainably reduce the concentration of sSema4D | – | – | – | – | significantly inhibit | reduce the percentage of abnormal blood vessels in the total retinal area | comparable | – | comparable | significantly inhibit

Reference: patent publication US12297296B2, “Nano small peptide and its use in preparation of drugs for treating and preventing fundus vascular diseases” (FUTU Biotech Co., Ltd., priority 2021, dated 2025)
